Reference: patent US20140288110A1, “PPAR MODULATORS” (EVOLVA SA, priority 2006, published 2014)

Legend:
Format in all cases: cell-based
[1] = molecular target: T1, hRXRαLBD (Homo sapiens, UniProt P19793); assay: RXR transactivation assay (hRXRαLBD)
T1 construct: expressed in transfected cells
T1 sequence (P19793 227-458 limits assumed): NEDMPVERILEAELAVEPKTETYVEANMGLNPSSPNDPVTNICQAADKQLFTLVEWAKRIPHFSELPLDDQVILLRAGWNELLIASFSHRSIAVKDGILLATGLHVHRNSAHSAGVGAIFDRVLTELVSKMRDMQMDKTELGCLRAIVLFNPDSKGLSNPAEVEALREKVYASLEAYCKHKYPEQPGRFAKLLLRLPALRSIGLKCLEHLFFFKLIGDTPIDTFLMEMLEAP
Description: This example describes a retinoic acid X receptor transactivation assay.
Compounds are tested for their ability to transactivate RXR essentially as described in Example 1.

[2] = tested on: 3T3-L1 preadipocytes; assay: Glucose uptake assay; set-up: dose or concentration left out as unconfirmed; details: SN1
Description: Glucose uptake assays are important to establish the suitability of a compound for the treatment of insulin resistance.
Briefly, 3T3-L1 preadipocytes are grown in 12-well plates until confluence. Cells are washed with serum-free DMEM and incubated with 1 ml of the same medium at 37° C. for 1-2 h. The cells are then washed with […] (KRP) buffer and then incubated with 0.9 ml KRP buffer at 37° C. for 30 min. Insulin is added to the cells at 0, 0.3, 1 and 3 nM final concentration and incubated for 15 min at 37° C. Glucose uptake is initiated by the addition of 0.1 ml of Krebs-Ringer phosphate (KRP) buffer supplemented with 10 mM [^3H] 2-deoxy-D-glucose (1 mCi/l). After a 10 minute incubation at 37° C., the medium is aspirated and plates washed with ice-cold PBS to terminate the induced glucose uptake. The cells are lyzed with 0.5 ml 1% Triton X-100 and radioactivity levels determined using a scintillation counter. The results are depicted in FIG. 7.

[3] = molecular target: T2, mPPARalphaLBD (Mus musculus, UniProt P23204); assay: PPARalpha transactivation assay (mPPARalphaLBD)
T2 construct: expressed in transfected cells
T2 sequence (P23204 239-466 limits assumed): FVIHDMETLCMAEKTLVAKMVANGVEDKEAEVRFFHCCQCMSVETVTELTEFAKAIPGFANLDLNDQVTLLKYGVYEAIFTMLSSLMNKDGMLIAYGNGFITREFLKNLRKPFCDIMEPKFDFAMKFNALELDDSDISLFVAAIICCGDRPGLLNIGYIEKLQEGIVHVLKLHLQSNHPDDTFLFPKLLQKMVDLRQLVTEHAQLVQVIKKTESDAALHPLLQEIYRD
Description: This example describes a transactivation assay for determining PPARalpha modulating activity.
DPD and other ligands are tested for their ability to transactivate PPAR alpha essentially as described in Example 1.

[4] = molecular target: T3, mPPARdeltaLBD (Mus musculus, UniProt P35396); assay: PPARdelta transactivation assay (mPPARdeltaLBD)
T3 construct: expressed in transfected cells
T3 sequence (P35396 210-438 limits assumed): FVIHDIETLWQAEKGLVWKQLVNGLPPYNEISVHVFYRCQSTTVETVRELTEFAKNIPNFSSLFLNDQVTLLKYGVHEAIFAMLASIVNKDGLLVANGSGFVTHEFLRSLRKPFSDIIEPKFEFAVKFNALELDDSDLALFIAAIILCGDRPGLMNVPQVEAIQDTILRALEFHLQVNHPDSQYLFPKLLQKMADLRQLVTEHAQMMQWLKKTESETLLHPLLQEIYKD
Description: This example describes a transactivation assay for determining PPARdelta modulating activity.
DPD and other ligands are tested for their ability to transactivate PPARdelta essentially as described in Example 1.

Compound: O=C(O)CC/C=C\C[C@@H]1CO[C@H](c2ccccc2Cl)O[C@@H]1c1ccccc1O (racemic) [SN1, 4-(Z)-6-(2-o-chlorophenyl-4-o-hydroxyphenyl-1,3-dioxan-cis-5-yl) hexenoic acid]
- increase of RXR transactivation [1]: no transactivation
- glucose uptake compared with Avandia [2]: same level of glucose uptake
- increase of PPAR alpha transactivation [3]: no transactivation
- increase of PPAR delta transactivation [4]: no or little increase in transactivation
